{"source": "ChEMBL document CHEMBL5038669", "about": "“Development of the First Covalent Monopolar Spindle Kinase 1 (MPS1/TTK) Inhibitor” (J Med Chem, 2022)", "key": {"Hep 3B2 [1]": {"system": "Hep 3B2", "experiment": "Induction of apoptosis in human Hep3B cells assessed as increase in cleaved caspase-3 level at 200 nM measured upto 5 days by Western blot analysis", "type": "functional, cell-based", "conditions": "time day <=5"}, "Huh-7 [2]": {"system": "Huh-7", "experiment": "Induction of cell senescence in human Huh-7 cells at 200 uM measured up to 5 days by SA-beta-gal-staining based assay", "type": "functional", "conditions": "time day <=5"}, "Hep 3B2 [3]": {"system": "Hep 3B2", "experiment": "Induction of cell senescence in human Hep3B cells at 200 uM measured up to 5 days by SA-beta-gal-staining based assay", "type": "functional", "conditions": "time day <=5"}, "SNU-387 [4]": {"system": "SNU-387", "experiment": "Induction of cell senescence in human SNU-387 cells at 200 uM measured up to 5 days by SA-beta-gal-staining based assay", "type": "functional", "conditions": "time day <=5"}, "Hep 3B2 [5]": {"system": "Hep 3B2", "experiment": "Synergistic antiproliferative activity against human Hep3B cells at 200 nM measured after 5 days in presence of navitoclax by crystal violet staining based assay", "type": "functional, cell-based", "conditions": "time 5.0 day"}, "SNU-387 [6]": {"system": "SNU-387", "experiment": "Synergistic antiproliferative activity against human SNU-387 cells at 200 nM measured after 5 days in presence of navitoclax by crystal violet staining based assay", "type": "functional, cell-based", "conditions": "time 5.0 day"}, "[7]": {"molecular_target": "T1, Dual specificity protein kinase TTK (Homo sapiens, UniProt P33981)", "T1 sequence (P33981 whole entry)": "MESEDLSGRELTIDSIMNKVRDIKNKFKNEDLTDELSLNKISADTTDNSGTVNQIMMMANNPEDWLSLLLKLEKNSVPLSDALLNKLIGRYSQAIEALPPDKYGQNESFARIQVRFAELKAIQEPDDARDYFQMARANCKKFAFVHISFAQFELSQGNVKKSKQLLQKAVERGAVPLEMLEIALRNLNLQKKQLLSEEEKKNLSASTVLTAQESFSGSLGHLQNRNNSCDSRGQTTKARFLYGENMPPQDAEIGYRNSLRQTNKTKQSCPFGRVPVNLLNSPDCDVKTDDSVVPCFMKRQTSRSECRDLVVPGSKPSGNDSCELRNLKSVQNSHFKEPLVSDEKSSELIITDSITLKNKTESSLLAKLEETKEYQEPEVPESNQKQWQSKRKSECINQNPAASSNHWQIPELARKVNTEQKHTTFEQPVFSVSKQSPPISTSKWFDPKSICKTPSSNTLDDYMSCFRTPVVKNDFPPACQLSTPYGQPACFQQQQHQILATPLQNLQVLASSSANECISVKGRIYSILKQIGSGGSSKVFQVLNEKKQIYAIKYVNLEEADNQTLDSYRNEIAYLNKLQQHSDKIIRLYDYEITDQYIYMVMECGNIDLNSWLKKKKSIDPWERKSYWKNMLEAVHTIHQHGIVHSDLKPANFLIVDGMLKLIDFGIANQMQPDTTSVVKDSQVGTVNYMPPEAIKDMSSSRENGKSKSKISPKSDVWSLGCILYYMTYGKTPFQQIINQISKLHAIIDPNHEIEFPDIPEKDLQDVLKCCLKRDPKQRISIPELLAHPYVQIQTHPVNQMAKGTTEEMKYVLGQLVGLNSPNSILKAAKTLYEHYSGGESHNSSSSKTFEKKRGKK", "experiment": "Inhibition of recombinant human full length N-terminal GST-fused MPS1 (1 to 857 residues) using histone H3 as substrate by TR-FRET assay"}, "[8]": {"molecular_target": "T2, Dual specificity protein kinase TTK (Homo sapiens) (UniProt P33981)", "T2 sequence (whole entry)": "T1 sequence (P33981 whole entry)", "experiment": "Displacement of tracer K9 from NanoLuc-fused MPS1 (unknown origin) expressed in HEK293T cells at 10 fold IC50 preincubated for 2 hrs followed by compound washout by NanoBRET assay", "type": "cell-based"}, "COLO 205": {"system": "COLO 205", "experiment": "Antiproliferative activity against human COLO 205 cells", "type": "functional, cell-based"}, "HT-29": {"system": "HT-29", "experiment": "Antiproliferative activity against human HT-29 cells", "type": "functional, cell-based"}, "HCC 2998": {"system": "HCC 2998", "experiment": "Antiproliferative activity against human HCC 2998 cells", "type": "functional, cell-based"}, "KM12": {"system": "KM12", "experiment": "Antiproliferative activity against human KM12 cells", "type": "functional, cell-based"}, "HCT-15": {"system": "HCT-15", "experiment": "Antiproliferative activity against human HCT-15 cells", "type": "functional, cell-based"}, "HCT-116": {"system": "HCT-116", "experiment": "Antiproliferative activity against human HCT-116 cells", "type": "functional, cell-based"}, "SNU-387 [9]": {"system": "SNU-387", "experiment": "Antiproliferative activity against human SNU-387 cells incubated for 5 days by XTT assay", "type": "functional, cell-based", "conditions": "time 5.0 day"}, "SK-HEP1": {"system": "SK-HEP1", "experiment": "Antiproliferative activity against human SK-HEP1 cells incubated for 5 days by XTT assay", "type": "functional, cell-based", "conditions": "time 5.0 day"}, "Hep 3B2 [10]": {"system": "Hep 3B2", "experiment": "Antiproliferative activity against human Hep3B cells incubated for 5 days by XTT assay", "type": "functional, cell-based", "conditions": "time 5.0 day"}, "HuH-6": {"system": "HuH-6", "experiment": "Antiproliferative activity against human HuH-6 cells incubated for 5 days by XTT assay", "type": "functional, cell-based", "conditions": "time 5.0 day"}, "Huh-7 [11]": {"system": "Huh-7", "experiment": "Antiproliferative activity against human Huh-7 cells incubated for 5 days by XTT assay", "type": "functional, cell-based", "conditions": "time 5.0 day"}, "PLC-PRF-5": {"system": "PLC-PRF-5", "experiment": "Antiproliferative activity against human Alex cells incubated for 5 days by XTT assay", "type": "functional, cell-based", "conditions": "time 5.0 day"}, "HLE": {"system": "HLE", "experiment": "Antiproliferative activity against human HLE cells incubated for 5 days by XTT assay", "type": "functional, cell-based", "conditions": "time 5.0 day"}, "HLF": {"system": "HLF", "experiment": "Antiproliferative activity against human HLF cells incubated for 5 days by XTT assay", "type": "functional, cell-based", "conditions": "time 5.0 day"}, "Huh-7 [12]": {"system": "Huh-7", "experiment": "Induction of apoptosis in human Huh-7 cells assessed as increase in p21 expression level at 200 nM measured upto 5 days by Western blot analysis", "type": "functional, cell-based", "conditions": "time day <=5"}, "Hep 3B2 [13]": {"system": "Hep 3B2", "experiment": "Induction of apoptosis in human Hep3B cells assessed as increase in p21 expression level at 200 nM measured upto 5 days by Western blot analysis", "type": "functional, cell-based", "conditions": "time day <=5"}, "SNU-387 [14]": {"system": "SNU-387", "experiment": "Induction of apoptosis in human SNU-387 cells assessed as increase in p21 expression level at 200 nM measured upto 5 days by Western blot analysis", "type": "functional, cell-based", "conditions": "time day <=5"}, "Huh-7 [15]": {"system": "Huh-7", "experiment": "Induction of apoptosis in human Huh-7 cells assessed as increase in phospho-gammaH2A.X expression level at 200 nM measured upto 5 days by Western blot analysis", "type": "functional, cell-based", "conditions": "time day <=5"}, "Hep 3B2 [16]": {"system": "Hep 3B2", "experiment": "Induction of apoptosis in human Hep3B cells assessed as increase in phospho-gammaH2A.X expression level at 200 nM measured upto 5 days by Western blot analysis", "type": "functional, cell-based", "conditions": "time day <=5"}, "SNU-387 [17]": {"system": "SNU-387", "experiment": "Induction of apoptosis in human SNU-387 cells assessed as increase in phospho-gammaH2A.X expression level at 200 nM measured upto 5 days by Western blot analysis", "type": "functional, cell-based", "conditions": "time day <=5"}, "[18]": {"molecular_target": "T3, Serine/threonine-protein kinase 17B (Homo sapiens) (UniProt O94768)", "T3 sequence (whole entry)": "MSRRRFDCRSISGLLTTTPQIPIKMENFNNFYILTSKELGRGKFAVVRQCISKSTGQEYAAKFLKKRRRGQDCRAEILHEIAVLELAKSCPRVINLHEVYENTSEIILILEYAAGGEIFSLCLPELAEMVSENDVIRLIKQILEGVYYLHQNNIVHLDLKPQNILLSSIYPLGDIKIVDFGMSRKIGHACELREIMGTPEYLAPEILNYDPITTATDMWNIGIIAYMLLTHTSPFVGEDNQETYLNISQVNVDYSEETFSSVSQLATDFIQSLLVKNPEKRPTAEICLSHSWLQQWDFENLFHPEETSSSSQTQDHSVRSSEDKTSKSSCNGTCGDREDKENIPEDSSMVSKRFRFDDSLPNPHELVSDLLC", "conditions": "dose 10.0 µM"}}, "note": "Calls of active or inactive are those of the source. The calls are words filed in the database; no cut-off is given here."}
{"smiles": "C=CC(=O)Nc1cc(N2CCN(C)CC2)ccc1Nc1ncc2c(n1)-n1ccc(C(=O)Nc3c(CC)cccc3CC)c1CC2", "values": [{"measurement": "Activity", "setting": "Hep 3B2 [1]", "result": "Active"}, {"measurement": "Activity", "setting": "Huh-7 [2]", "result": "Active"}, {"measurement": "Activity", "setting": "Hep 3B2 [3]", "result": "Active"}, {"measurement": "Activity", "setting": "SNU-387 [4]", "result": "Active"}, {"measurement": "Activity", "setting": "Hep 3B2 [5]", "result": "Active"}, {"measurement": "Activity", "setting": "SNU-387 [6]", "result": "Active"}, {"measurement": "IC50", "setting": "[7]", "result": 13, "unit": "nM"}, {"measurement": "Ki", "setting": "[7]", "result": 0.83, "unit": "nM"}, {"measurement": "Activity", "setting": "[8]", "result": 50, "unit": "%"}, {"measurement": "Activity", "setting": "COLO 205", "result": "Active"}, {"measurement": "Activity", "setting": "HT-29", "result": "Active"}, {"measurement": "Activity", "setting": "HCC 2998", "result": "Active"}, {"measurement": "Activity", "setting": "KM12", "result": "Active"}, {"measurement": "Activity", "setting": "HCT-15", "result": "Active"}, {"measurement": "Activity", "setting": "HCT-116", "result": "Active"}, {"measurement": "Activity", "setting": "SNU-387 [9]", "result": "Active"}, {"measurement": "Activity", "setting": "SK-HEP1", "result": "Active"}, {"measurement": "Activity", "setting": "Hep 3B2 [10]", "result": "Active"}, {"measurement": "Activity", "setting": "HuH-6", "result": "Active"}, {"measurement": "Activity", "setting": "Huh-7 [11]", "result": "Active"}, {"measurement": "Activity", "setting": "PLC-PRF-5", "result": "Active"}, {"measurement": "Activity", "setting": "HLE", "result": "Active"}, {"measurement": "Activity", "setting": "HLF", "result": "Active"}, {"measurement": "Activity", "setting": "Huh-7 [12]", "result": "Active"}, {"measurement": "Activity", "setting": "Hep 3B2 [13]", "result": "Active"}, {"measurement": "Activity", "setting": "SNU-387 [14]", "result": "Active"}, {"measurement": "Activity", "setting": "Huh-7 [15]", "result": "Active"}, {"measurement": "Activity", "setting": "Hep 3B2 [16]", "result": "Active"}, {"measurement": "Activity", "setting": "SNU-387 [17]", "result": "Active"}, {"measurement": "ΔTm", "setting": "[18]", "result": 11.9, "unit": "°C"}]}
